Consider seven compounds from publication PMC4889062, “Tachykinin-Related Peptides Share a G Protein-Coupled Receptor with Ion Transport Peptide-Like in the Silkworm Bombyx mori” (PLoS ONE, 2016).

Peptide text beside a SMILES is read from it.

The target in test [1] is EGFP-fused BNGR-A24 (Bombyx mori neuropeptide G protein-coupled receptor A24) (Bombyx mori) (UniProt B3XXN7).
The target of test [2] is T1, BNGR-A24 (Bombyx mori, UniProt B3XXN7).
T1 sequence (B3XXN7 1-391): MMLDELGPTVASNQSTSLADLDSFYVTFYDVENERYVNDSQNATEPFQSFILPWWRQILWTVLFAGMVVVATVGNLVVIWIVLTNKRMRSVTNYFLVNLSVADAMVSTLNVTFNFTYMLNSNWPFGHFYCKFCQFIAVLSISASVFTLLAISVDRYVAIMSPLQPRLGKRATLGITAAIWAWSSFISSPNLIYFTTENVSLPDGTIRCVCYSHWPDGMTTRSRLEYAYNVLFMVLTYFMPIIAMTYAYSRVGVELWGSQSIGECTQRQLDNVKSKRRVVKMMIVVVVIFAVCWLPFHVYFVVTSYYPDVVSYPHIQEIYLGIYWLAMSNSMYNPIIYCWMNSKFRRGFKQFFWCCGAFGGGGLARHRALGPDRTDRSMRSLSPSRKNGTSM
As to the kind of experiment: Ca2+ imaging assay of BNGR-A24 with competitor added together with the ligand. The class given is cell-based. On the procedure:
The assays were performed as previously reported. […] At least three independent experiments were performed.
Next, we examined the effect of simultaneous addition of spantide I and rITPL on ligand competition. The dose-response curve of 10–300 nM rITPL shifted in a similar manner to that observed for TK-4.
Fig 3 Effect of spantide I on the response of BNGR-A24 to rITPL and TK-4. Spantide I (SP), a potential competitor, was added together with rITPL or TK-4 and the response of BNGR-A24 was monitored using the Ca^2+ imaging assay. Dose-response curves of the responses are presented as relative fluorescent intensity (mean ± S.D.; n = 3). Asterisks indicate significant differences for treatment with the same ligand without spantide I (P < 0.05; Dunnett’s test).

Test [3] addresses T1, BNGR-A24. As to the kind of experiment: Competitive binding assay, RR-labeled ligands and CHO cells expressing EGFP-fused BNGR-A24. As to conditions: 50 μM spantide I as competitor; CHO cells, EGFP-fused BNGR-A24, 4°C. On the procedure: Binding assays were performed as previously reported. Briefly, CHO cells were transfected with 2 μg of pME18S plasmids harboring enhanced green fluorescent protein (EGFP)-fused BNGR cDNA. The binding assay was performed with cells 24 h post transfection. The cells were pre-incubated at 4°C for 30 min prior to the assay to minimize receptor internalization by ligand binding. Following the addition of 50 μL of non-labeled ligand as a potential competitor, 50 μL of RR-labeled ligand was added. Subsequent to incubation at 4°C for 60 min, the cells were washed twice with an ice-cold fixation buffer (4% formaldehyde in PBS) and then 500 μL of the fixation buffer was added. The fluorescence derived from EGFP and RR was observed using a confocal microscope (FV-1000D) with preinstalled dye modes for EGFP and DsRed, respectively. The fluorescent data obtained from six individual cells of at least two independent experiments were analyzed using Fluoview software (Olympus).
Following 30-min exposure of the cells to RR-labeled rITPL or TK-4, both red fluorescence (derived from the RR-labeled ligands) and green fluorescence (derived from EGFP C-terminally fused to BNGR-A24) were observed on the cell surface, indicating ligand-receptor binding (Fig 4). […] In this case, the addition of 20 μM rITPL reduced the ligand-derived signal by approximately 90% compared to that observed without the addition of unlabeled ligand.
Fig 4 In vitro competitive binding assay of rITPL and TK-4 to BNGR-A24. (A–D) Microscopic imaging. The binding of RR-labeled ligands (A and C, rITPL; B and D, TK-4) and CHO cells expressing EGFP-fused BNGR-A24 was examined in the presence of potential competitors (A, TK-4; B, rITPL; C and D, spantide I [SP]). EGFP and RR fluorescences were observed by confocal microscopy. Co-localization is presented as yellow in the merged images (Merge). Representative images of cells from at least two independent experiments are shown. (E–H) Relative fluorescent intensity obtained from experiment images (A)–(D), respectively. […]

For test [4], the target named is T1, BNGR-A24. As to the kind of experiment: cell-based. On the procedure:
The assays were performed as previously reported. Briefly, HEK293T cells seeded on a glass-based dish were co-transfected with pME18S plasmids carrying BNGRs and the promiscuous G protein alpha subunit, Gα15. Following 24 h incubation, the transfected cells were loaded with 500 μL of a Ca^2+ indicator solution (2 μM Fluo-4 AM [Dojin Chemicals, Kumamoto, Japan] and 0.01% Pluronic-F 127 [Anaspec, San Jose, CA, USA] in Opti-MEM [Life Technologies]) and incubated at 37°C for 30 min in a dark room. The cells were washed twice with Ringer’s solution and then 800 μL Ringer’s solution was added to the cells. Within a given run time, 100 μL of the following compounds were added sequentially: Ringer’s solution (at 15 s, vehicle control), the peptide of interest or a mixture with its potential competitor (at 60 s), and 100 μM ATP (at 120 s, an experimental control). Fluo-4-derived fluorescence was chronologically monitored using a confocal laser-scanning microscope (FV-1000D; Olympus, Tokyo, Japan), with the preinstalled dye mode for Fluo-3. At least three independent experiments were performed. Dose-response curves were generated and EC50 values were calculated from the obtained fitting curves.
In order to evaluate whether the three TRP receptor candidates, BNGR-A24, -A32, and -A33, function as receptors for B. mori TRPs, the response of these three BNGRs to chemically synthesized TRPs was examined using the Ca^2+ imaging assay.
The response of HEK293T cells co-expressing BNGR-A24 (A) or BNGR-A32 (B) and promiscuous mouse Gα15 to the TRPs was monitored using the Ca^2+ imaging technique. Dose-response curves are depicted as relative fluorescent intensity (mean ± S.D.; n = 3).

In the case of B. mori tachykinin-related peptide TK-4, in test [1], the EC50 of the Ca2+ imaging response (Fluo-4) of HEK293T cells co-expressing BNGR-A24 and Galpha15 was determined as 0.27 nM. On the same count and under the same terms, as for B. mori tachykinin-related peptide TK-2, the figure is 0.49 nM. With spantide I, the “Effect on response of BNGR-A24 to rITPL” value in test [2] (50 μM spantide I added with 10–300 nM rITPL, n = 3, vs no competitor) is given as “significantly lower”. For the same compound, the “Effect on response of BNGR-A24 to TK-4” value in test [2] (simultaneous treatment with 10 μM or 50 μM spantide I, n = 3, Dunnett's test P < 0.05) is “significantly decreased”. In test [3], the “Fluorescence derived from RR-labeled TK-4” value is given as “nearly complete quenching” and the “Fluorescence derived from RR-labeled rITPL” value was “nearly complete quenching”.

In test [1], B. mori tachykinin-related peptide TK-3 registered an EC50 of the Ca2+ imaging response (Fluo-4) of HEK293T cells co-expressing BNGR-A24 and Galpha15 of 0.79 nM. As usually defined, the EC50 is the concentration giving half of the maximal effect. A low value points to higher potency in that assay. For `CC[C@H](C)[C@H](N)C(=O)N1CCC[C@H]1C(=O)N[C@@H](CCC(N)=O)C(=O)NCC(=O)N[C@@H](Cc1ccccc1)C(=O)N[C@@H](CC(C)C)C(=O)NCC(=O)N[C@@H](CCSC)C(=O)N[C@@H](CCCNC(=N)N)C(N)=O` [TK-1] (H-IPQGFLGMR-NH2; N-terminus assumed), in test [4], the 50% effective concentration (EC50) stood at 7.1 nM. The compound `CSCC[C@H](NC(=O)[C@H](CC(N)=O)NC(=O)[C@H](C)NC(=O)[C@H](C)N)C(=O)N[C@@H](Cc1c[nH]cn1)C(=O)N[C@@H](CCC(N)=O)C(=O)N[C@@H](Cc1ccccc1)C(=O)N[C@@H](Cc1ccc(O)cc1)C(=O)NCC(=O)N[C@H](C(=O)N[C@@H](CCCNC(=N)N)C(N)=O)C(C)C` [TK-3] (H-AANMHQFYGVR-NH2; N-terminus assumed) came in with a concentration for a half-maximal effect (EC50) in test [4] of 0.79 nM. As to B. mori tachykinin-related peptide TK-1, the EC50 of the Ca2+ imaging response (Fluo-4) of HEK293T cells co-expressing BNGR-A24 and Galpha15 in test [1] turned out to be 7.1 nM.
